Results on 7 compounds are retold here after patent US11661404B2, “Prodrug compounds activated by AKR1C3 and their use for treating hyperproliferative disorders” (priority 2018, dated 2023).

The test deals with T1, recombinant human AKR1C3 (Homo sapiens, UniProt P42330).
T1 construct: His6 (hexahistidine) (C); made in house; host or cells: E. coli BL21(DE3)
T1 sequence (P42330 1-323): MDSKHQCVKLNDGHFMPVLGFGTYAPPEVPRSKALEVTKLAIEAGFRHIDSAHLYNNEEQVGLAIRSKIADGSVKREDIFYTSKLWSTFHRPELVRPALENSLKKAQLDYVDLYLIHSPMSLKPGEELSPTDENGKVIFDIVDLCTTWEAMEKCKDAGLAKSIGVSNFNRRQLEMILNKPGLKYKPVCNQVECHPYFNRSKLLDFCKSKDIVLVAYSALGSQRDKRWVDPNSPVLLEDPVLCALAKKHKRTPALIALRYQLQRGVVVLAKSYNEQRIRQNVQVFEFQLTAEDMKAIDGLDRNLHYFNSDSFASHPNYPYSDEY
Description: Kinetics assay: metabolism of prodrugs by recombinant human AKR1C3. Type of test: biochemical. Conditions: NADPH, pH 7.4, 37° C. On the procedure: E. coli BL21(DE3) cells expressing the pET22b-AKR1C3 construct with a C-terminal hexahistidine (His6) tag and constitutive promoter was generated. Colonies of these transformed E. coli cells were grown in LB agar medium containing 100 μg/mL of ampicillin. A single colony was picked the following day and grown in 400 mL batches of bacterial medium containing ampicillin (100 μg/mL) at 37° C., with continuous shaking at 200 rpm overnight. Bacterial cultures were pelleted by centrifugation (4000×g, 15 minutes) and resuspended in lysis buffer (10 mL/400 mL culture). The cells were disrupted by sonication (Sonicator 3000, Misonix) and centrifuged at 14,000 rpm for 30 minutes (at 4° C.). The cleared lysate was filtered in successive filters containing pore sizes of 1.20 μm, 0.8 μm and 0.2 μm and loaded onto a nickel-agarose affinity chromatography column on an ÄKTA Purifier system. The column was washed with 20 mL of the lysis buffer and the His6-tagged AKR1C3 protein was eluted with lysis buffer supplemented with 500 mM imidazole. The protein was further purified by a liquid chromatography gel filtration column (Superdex 200 HR16/60) using lysis buffer (supplemented with 5% v/v glycerol) and 1 mM DTT (pH 7.0) at a flow rate of 0.3 mL/min. Protein was monitored by absorbance at 280 nm, and purity of the fractions (1 mL) was assessed by SDS-PAGE. Active fractions containing the purified protein were pooled and concentrated by centrifugation (3,000×g, 4° C.) on a Vivaspin concentrator (MWCO 10,000 cutoff; GE Healthcare). The protein containing solution was supplemented with glycerol (to a final concentration of 15%, v/v) and NADP^+ was added to a final concentration of 2 mM.
Kinetic parameters of compounds of the invention were determined in a 96-well plate format. The 100 mM potassium phosphate buffer used in this assay was made with the following reagents to a pH of 7.4: • 0.5 M K2HPO4— 8.2 mL • 0.5 M KH2PO4— 1.8 mL • BSApowder—25 mg • Milli Q water—40 mL
For the assay, 2 μL of varying substrate concentrations were incubated with 94 μL of the potassium phosphate buffer and 2 μL of 5 mM NADPH for 5 minutes in the pre-warmed (37° C.) plate chamber of a Molecular Devices SpectraMax M2 plate reader. Purified AKR1C3 enzyme (2 μL) was added to a final concentration of […] in each well using an Eppendorf electronic multi-channel pipette. Absorbance measurements were recorded immediately upon addition of enzyme over a period of 5 minutes at a wavelength of 400 nm. Absorbance changes for each compound concentration were plotted against time to obtain the rate of absorbance change over the 5 minute period. The rate of absorbance change was then plotted against the compound concentration and non-linear regression analysis and Michaelis-Menten curve fitting performed on GraphPadPrism (version 5.00 for Windows, GraphPad Software, San Diego Calif. USA) in order to determine kinetic parameters of compounds.

For orientation: Km means the substrate concentration at which the rate is half of its maximum. In general, kcat refers to the maximal rate divided by the concentration of active sites. Take `CS(=O)(=O)OCCN(CCBr)c1c(C(=O)NCCO)cc([N+](=O)[O-])cc1[N+](=O)[O-]` [PR-104A, 2-((2-bromoethyl)(2-((2-hydroxyethyl)-carbamoyl)-4,6-dinitrophenyl)amino)ethyl methanesulfonate, reference compound]: the Km turned out to be 72.9 µM and the kcat was determined as 18.7 s⁻¹. For `CS(=O)(=O)OCCN(CCBr)c1ccc([N+](=O)[O-])cc1S(=O)(=O)N1CCN(CC(O)CO)CC1` (stereo not shown) [Compound 605, 2-((2-bromoethyl)(2-((4-(2,3-dihydroxypropyl)piperazin-1-yl)sulfonyl)-4-nitrophenyl)amino)ethyl methanesulfonate], the Km is 17.1 µM.

`CN1CCN(C(=O)c2cc([N+](=O)[O-])ccc2N(CCBr)CCBr)CC1` [SN34118, reference compound]: the Km stood at 9 µM and the kcat is 18.7 s⁻¹. For `CN1CCN(S(=O)(=O)c2cc([N+](=O)[O-])ccc2N(CCOS(C)(=O)=O)CCOS(C)(=O)=O)CC1` [Compound 641, ((2-((4-methylpiperazin-1-yl)sulfonyl)-4-nitrophenyl)azanediyl)bis(ethane-2,1-diyl) dimethanesulfonate], the Km turned out to be 21.5 µM. As to `CN1CCN(C(=O)c2cc([N+](=O)[O-])ccc2N(CCBr)CCOS(C)(=O)=O)CC1` [SN34454, reference compound], the kcat turned out to be 5.2 s⁻¹.

Regarding `CN1CCN(S(=O)(=O)c2cc([N+](=O)[O-])ccc2N(CCBr)CCOS(C)(=O)=O)CC1` [Compound 602, 2-((2-bromoethyl)(2-((4-methylpiperazin-1-yl)sulfonyl)-4-nitrophenyl)amino)ethyl methanesulfonate], the Km came out at 33.1 µM. As to `O=[N+]([O-])c1ccc(N(CCBr)CCBr)c(S(=O)(=O)N2CCN(CC(O)CO)CC2)c1` (stereo not shown) [Compound 566, 3-(4-((2-(bis(2-bromoethyl)amino)-5-nitrophenyl)sulfonyl)piperazin-1-yl)propane-1,2-diol], the Km amounted to 32.2 µM and the kcat is 67.1 s⁻¹.
